Literature values in patent publication US20100047334A1, “PH SENSITIVE LIPOSOME COMPOSITIONS FOR CONTROLLING SURFACE TOPOGRAPHY AND BINDING REACTIVITY IN FUNCTIONALIZED LIPOSOMES” (priority 2006, published 2010).
Like-named read-outs stand apart in the source and are kept apart here. Each block holds one compound with its values, some of them ahead of it.

Legend:
streptavidin = streptavidin (Streptomyces avidinii, UniProt P22629)
[1] = highest reported value; 0.1 ionic strength; dimyristoyl- and dipalmitoyl-phosphatidylserine membranes

lateral diffusion coefficient (at 37° C. (gel)): 10^−10 cm^2/s
lateral diffusion coefficient (in the fluid state): 5×10^−8 cm^2/s
Compound: CCCCCCCCCCCCCCCC(=O)OC[C@H](COP(=O)([O-])OCC[N+](C)(C)C)OC(=O)CCCCCCCCCCCCCCC [DPPC lipids, 1,2-Dipalmitoyl-sn-Glycero-3-Phosphocholine]

Compound: O=C(O)CCCC[C@@H]1SC[C@@H]2NC(=O)N[C@@H]21 [biotin]
Ka of the biotin-streptavidin link (streptavidin): 10^13 M^−1

apparent pKa of phosphatidylserine's carboxyl group [1]: 5.5
Compound: phosphatidylserine
